From US8058258B2, “Methods for cancer therapy and stem cell modulation” (Agency for Science, Technology and Research, priority 2006, dated 2011) come the findings set out here.

Series [1] relates to caspase 3 in HCT116 cells. The experiment in a line: Caspase 3 activity by flow cytometry. Format: cell-based. An excerpt:
FIG. 3D depicts the detection of activation the protease caspase 3 potential in HCT116 cells by 3-deazaneplanocin (DZNep, right hand side), which occurs during apoptosis. Cells were trypsinised and washed with PBS and fixed in 70% ethanol and processed for propidium iodide staining and FACS analysis. For the caspase 3 activity assay and mitochondrial membrane potential detection, cells were stained with anti-active caspase 3 and JC-1, respectively, according to the manufacturer's instructions (BD Bioscience).
(In general: Flow cytometry measures light scatter and fluorescence of single cells or particles in a stream.)

In series [2] the test system is PRC2 target genes TGFBI, KRT17, FBXO32, ANXA8, DLX2. As to the kind of experiment: Real-time RT-PCR of representative PRC2 targets in MCF-7 cells. Format: cell-based, human. (In general: Quantitative PCR measures a nucleic acid by following its amplification.)
Experimental: I: MCF-7 cells were untreated or treated with 3-deazaneplanocin (DZNep), 5-azacytidine (5-AzaC) or a combination of 5-azacytidine and trichostatin A (AZA+TSA), and RNA was isolated for gene expression analysis.
Cells were maintained in DMEM supplemented with 10% fetal bovine serum with glutamine, penicillin, and streptomycin. For drug treatment, cells were seeded the day before the drug treatment. Cells were treated with 5 μM 3-Deazaneplanocin A or 2 μM 5-aza-2′-deoxycytidine (5-AzaC; Sigma) for 72 hours and trichostatin A (TSA; Sigma) at 100 nM for 24 hours. For co-treatment of cells with 5-AzaC and TSA, 5-Aza was added for 48 hours and followed by TSA for 24 hours.
Total RNA was isolated from cell lines using Trizol (Invitrogen) and was converted to cDNA using an RNA Amplification kit (Ambion). […] Quantitative real-time PCR was performed on a PRISM 7900 sequenced detector (Applied Biosystems) using TaqMan probes (Applied Biosystems). Samples were normalized to the levels of 18S ribosomal RNA.
The array results were further confirmed by real-time RT-PCR for representative PRC2 targets.
The subject of the next series is MCF-7 and HCT116 cells. The experiment in a line: Mitochondrial membrane potential by JC-1 staining and flow cytometry. Format: cell-based. Particulars: JC-1, flow cytometry. An excerpt:
FIG. 3B depicts the detection of mitochondrial membrane potential of HCT116 cells by staining with the dye 5,5′,6,6′-tetrachloro-1,1′,3,3′-tetraethyl-benzamidazolocarbocyanin iodide (JC-1).
FIG. 3C compares the apoptosis in HCT116 cells (right hand side, data of FIG. 3B) to the apoptosis in MCF-7 cells (left hand side).
(§1) Cells were trypsinised and washed with PBS and fixed in 70% ethanol and processed for propidium iodide staining and FACS analysis. For the caspase 3 activity assay and mitochondrial membrane potential detection, cells were stained with anti-active caspase 3 and JC-1, respectively, according to the manufacturer's instructions (BD Bioscience).
To elucidate the mechanisms by which 3-deazaneplanocin induces cell death, flow cytometry was used to analyse the loss of mitochondrial membrane potential (ΔΨm) in MCF-7 and HCT116 cells after 3-deazaneplanocin treatment (FIGS. 3B & 3C).

The next series concerns MCF10A cells. As to the kind of experiment: Apoptosis by FACS analysis in non-cancerous cells. Format: cell-based. Particulars: 5 μM. Here is the method: Cells were treated with 5 μM 3-deazaneplanocin (DZNep, dark bars) for indicated times.
FIG. 6A depicts an analysis of the breast cancer cell lines MCF-7, MB-468, SK-BR-3, MB-231, T47D and BT549 for an apoptotic effect of 5 μM 3-deazaneplanocin over a time frame of 120 hours. Cell death was measured by FACS analysis. Data presented are the average of three independent experiments.
as §1
To determine whether 3-deazaneplanocin preferentially induces apoptosis in cancer cells, the apoptosis induction between MCF-7 cells and the non-cancerous breast epithelial MCF10A cells was compared for various periods of time. […] In addition, normal primary colon epithelial CC33D cells, like MCF10A cells, were also resistant to 3-deazaneplanocin treatment compared to colorectal cancer HCT116 cell, as evaluated by microscopy examination (FIGS. 3G & 3H).
To extend the observation seen in MCF-7 cells, additional breast cancer cell lines were screened, including MB-468, SK-BR-3, MB-231, T47D and BT549. […]

As for `Nc1nccc2c1ncn2C1C=C(CO)C(O)C1O` (stereo not drawn) [3-deazaneplanocin, 5-(4-amino-1H-imidazo[4,5-c]pyridin-1-yl)-3-(hydroxymethyl)-3-cyclopentene-1,2-diol], in series [1], the “activation of the protease caspase 3” value is reported as “activation”. Besides, in series [2], the “expression of ANXA8 and DLX2 (real-time RT-PCR)” value is “activated”; the “induction of TGFBI, KRT17 and FBX032 (real-time RT-PCR)” value was “only induced”. For the same molecule, the “loss of mitochondrial membrane potential (ΔΨm)” value with MCF-7 and HCT116 cells was “marked increase in the percentage of cells with lower ΔΨm”. The “sensitivity to 3-deazaneplanocin-induced cell death” value with MCF10A cells (MCF10A, time course to 120 hours) is listed as “highly resistant”. Also, in the series on MCF10A cells (non-cancerous breast epithelial MCF10A cells, up to 96 hours), the apoptosis induction entry is “no obvious apoptosis”.
